Values quoted from earlier work as cited in US20030162721A1, “PHARMACEUTICAL COMPOSITION CONTAINING PEPTICHEMIO” (priority 1997, published 2003).

Tested on: RPMI 8322 melanoma cells

In the case of “L-prolyl-m-sarcolysyl-L-p-fluorophenylalanine [PSF]”, the “times more toxic than m-sarcolysine” value (relative to m-sarcolysine) is given as 28 times and the “times more toxic than melphalan” value (relative to melphalan) is given as 35 times.
